Test system: LC3-II protein (muscle autophagy) in skeletal muscle (quadriceps)
Test: LC3-II western blot (normalized to GAPDH) in quadriceps of mice fed defined diets, with or without autophagy inducer in drinking water
Assay type: in vivo, C57b16/J mice
Details: 4 weeks ad libitum, 3 mM in drinking water
Procedure: 10-15 week-old C57b16/J mice were fed during ad libitum for 4 weeks with one of: a standard diet, a diet rich in proteins and poor in carbohydrates (high protein isocaloric), or a diet poor in proteins and rich in carbohydrates (low protein isocaloric). Each group was treated or not with 3 mM of autophagy inducer (e.g., spermidine) in the drinking water. Standard diet was composed of 16% fats (Soybean oil), 20% proteins (casein) and 64% carbohydrates (40% cornstarch, 14% dextrinized cornstarch, 10% sucrose). Low protein diet was composed of 16% fats (Soybean oil), 5% proteins (casein) and 79% carbohydrates (62% cornstarch, 10% dextrinized cornstarch, 7% sucrose). […]
Total protein lysates were extracted from 30-50 mg of tissues homogenized in 20 ml/g of RIPA buffer (150 mM sodium chloride, 50 mM Tris pH: 8, 1% Triton X-100, 0.5% deoxycolate, 0.1% SDS, protease inhibitors cocktail) with a tissue dissociator (gentleMACS Miltenyi Biotec). Protein concentration was determined by BCA assay, and samples were prepared adding 4X LDS sample buffer (Invitrogen). […] Membranes were incubated with LC3 (Novus Biologicals 2220) and GAPDH (Cell Signaling 2118) antibodies and detected with ECL substrates (Pierce). Protein quantification was performed by densitometric analysis of images using ImageJ software. […]

## NCCCCNCCCN [spermidine]
high-protein isocaloric diet (60% proteins), ***p<0.001
  muscle autophagy (LC3-II protein amount normalized to GAPDH): synergistically induces muscle autophagy
Low protein isocaloric diet (5% proteins)
  muscle autophagy (LC3-II protein amount normalized to GAPDH): inactive

— patent US20230285321A1, “COMPOSITIONS AND METHODS USING A COMBINATION OF AUTOPHAGY INDUCER AND HIGH PROTEIN FOR INDUCTION OF AUTOPHAGY” (SOCIETE DES PRODUITS NESTLE S.A., priority 2018, published 2023)
